Source: patent publication US11851681B2, “Cell preparation method” (KYOTO PREFECTURAL PUBLIC UNIVERSITY CORPORATION, priority 2015, dated 2023)
“Also recorded” adds a separate entry of the source. Read-outs that look alike come from different tables or passages of the source.

Columns and labels:
[1] = tested on: human dermal fibroblasts; HDFs; details: 4 μM in calcification induction medium; day 18; FIG. 22
Method: (§1) The calcification induction medium is a 10% FBS DMEM added with 50 μg/ml ascorbic acid, 10 mM β-glycerophosphate and 100 nM Dexamethasone. The culture medium was exchanged with a fresh one every 3-4 days, and culturing was performed until day 18.
On day 18, the culture medium was removed from each well by suction, washed with PBS, and total RNA was extracted from the cell with ISOGEN II. cDNA was synthesized from the RNA by using Rever Tra Ace qPCR RT Master Mix. This cDNA was admixed with Real-time PCR Master Mix, and primers specific to Osteocalcin, Alkaline Phosphatase or β-actin gene, and Taqman probe. qRT-PCR was performed using AB7300 Real-time PCR system. The mRNA level of Osteocalcin (Oc) and Alkaline Phosphatase (ALP) gene was quantified as a ratio to β-actin gene mRNA, and calculated with the value of fibroblast cultured in a calcification induction medium as 1.

[2] = tested on: Human normal skin-derived fibroblasts (HDFs); details: FIG. 42
Method: Human normal skin-derived fibroblasts (HDFs) were suspended in a general medium (DMEM added with 10% FBS). […] An adipocyte induction medium was added to group 2 at 1 mL/well. An adipocyte induction medium added with ALK5 inhibitor II at a concentration of 4 μM was added to groups 3-8 at 1 mL/well.
The adipocyte induction medium is DMEM added with 1 nM T3, 1 μM Rosiglitazone, 0.5 mM 3-isobutyl-1-methylxanthine (IBMX), 0.5 μM dexamethasone, 1 μg/mL Insulin and 10% FBS. Once every 2 days, the culture medium was exchanged with a fresh one. In groups 3-7, as described in the Figure, the cells were cultured in an adipocyte induction medium added with ALK5 inhibitor II only in the period of days 0-2, 0-4, 0-6, 0-8, 0-10, and thereafter cultured in an adipocyte induction medium free of ALK5 inhibitor II. On day 14, the culture medium was removed by suction from each well, and washed with PBS(−). After fixing with 4% para-formaldehyde, the well was washed with PBS (−), Permanent wave Buffer (0.2% Triton-X-added PBS) was added and the well was incubated for 15 min. After washing 3 times with PBS(−), Blocking One was added, and the mixture was incubated at room temperature for 60 min. Anti-UCP-1 antibody (RD MAB6158) was added and the mixture was reacted for 2 hrs at room temperature, and washed 3 times with Wash buffer. CF488-conjugated anti-mouse Ig antibody (Biotum 20014) was added and the mixture was reacted for 2 hrs at room temperature, and washed 3 times with PBS(−). After nuclear staining with SlowFade Gold antifade reagent with DAPI manufactured by Lifetechnology, the cells were photographed with a fluorescence microscope at ×100 magnification.

[3] = tested on: human dermal fibroblasts; HDFs; details: cartilage induction medium added with 2 M ALK5 inhibitor II; day 18; FIG. 9
Method: Once every 2 days, the culture medium was exchanged with a fresh one, and culturing was performed until day 18. The cells were washed twice with PBS(−), once with 3% acetic acid solution, an alcian blue staining solution (PH2.5) (Nacalai Tesque) was added and the cells were stained for 1 hr at room temperature. The cells were washed 3 times with PBS(−) and observed under a microscope.

[4] = tested on: Human Epidermal Keratinocyte; NHEK (AD); details: CnT-PR medium, 1 μM or 10 μM; day 21; FIG. 56
[5] = tested on: human dermal fibroblasts; HDFs; assay: Real-time RT-PCR of AdipoQ, Example 14; type: cell-based; details: D4476, SB431542, ALK5 Inhibitor II 2 μM, PD0325901 1 μM, in addition to T3 and Rosiglitazone; day 14; FIG. 14
Method: The concentrations of the additives are as follows: • T3: 1 nM • Rosiglitazone: 1 μM • D4476: 2 μM. • Pifithrin alpha [p53 inhibitor]: 5 μM • PD0325901: 1 μM • SB431542: 2 μM • ALK5 Inhibitor II: 2 μM.

[6] = tested on: Human normal skin-derived fibroblasts (HDFs); assay: Immunostaining of UCP1, four inhibitors, Example 40; type: cell-based; details: LY2157299 8 μM, SB431542 4 μM, D4476 4 μM, Day 1 to Day 8, day 14, FIG. 44
Method: Human normal skin-derived fibroblasts (HDFs) were suspended in a general medium (DMEM added with 10% FBS). […] The adipocyte induction medium is DMEM added with 1 nM T3, 1 μM Rosiglitazone, 0.5 mM 3-isobutyl-1-methylxanthine (IBMX), 0.5 μM dexamethasone, 1 μg/mL Insulin and 10% FBS. Once every 2 days, the culture medium was exchanged with a fresh one, and culturing was performed from Day 1 to Day 8. Thereafter, from Day 9 to Day 14, the cells were cultured in an adipocyte induction medium free of ALK5 inhibitor II, LY2157299, SB431542, D4476. On day 14, the culture medium was removed by suction from each well, and washed with PBS(−). After fixing with 4% para-formaldehyde, the well was washed with PBS (−), Permanent wave Buffer (0.2% Triton-X addition PBS) was added and the well was incubated for 15 min. After washing 3 times with PBS(−), Blocking One was added, and the mixture was incubated at room temperature for 60 min. Anti-UCP-1 antibody (RD MAB6158) was added and the mixture was reacted for 2 hrs at room temperature, and washed 3 times with Wash buffer. CF488-conjugated anti-mouse Ig antibody (Biotum 20014) was added and the mixture was reacted for 2 hrs at room temperature, and washed 3 times with PBS(−). After nuclear staining with SlowFade Gold antifade reagent with DAPI manufactured by Lifetechnology, the cells were photographed with a fluorescence microscope at ×100 magnification.

[7] = tested on: human gingival fibroblasts; GFs; details: 4 μM in calcification induction medium; day 18; FIG. 27
Method: as §1
On day 18, the culture medium was removed from each well by suction, washed with PBS(−), and fixed with 10% formalin. It was washed 3 times with sterile distilled water. The well after Alizarin Red S staining was washed with sterile distilled water, and photographed with an inverted microscope at ×40 magnification.

[8] = tested on: Human Epidermal Keratinocyte; NHEK (AD); assay: Real-time RT-PCR of UCP1 and CIDEA, keratinocyte to brown adipocyte, Example 43; type: cell-based; details: K-adipocyte induction medium; ALK5 inhibitor II 4 μM or LY2157299 8 μM, Day 1 to Day 8; day 14; FIG. 47
Method: Normal human epidermal keratinocyte (Human Epidermal Keratinocyte; NHEK (AD)) were suspended in a serum-free liquid medium for normal human epidermal keratinocyte proliferation (HuMedia-KG2; manufactured by Kurabo).
The K-adipocyte induction medium is HuMedia-KG2 added with 1 nM T3, 1 μM Rosiglitazone, 0.5 mM 3-isobutyl-1-methylxanthine (IBMX), 0.5 μM dexamethasone, and 1 μg/mL Insulin.
Once every 2 days, the culture medium was exchanged with a fresh one, and culturing was performed from Day 1 to Day 8. Thereafter, from Day 9 to Day 14, the cells were cultured in a medium free of ALK5 inhibitor II or LY2157299. On day 14, the culture medium was removed by suction from each well, washed with PBS(−) and total RNA was extracted from the cells by using RNA easy Mini Kit manufactured by Qiagen. cDNA was synthesized from the RNA by using Rever Tra Ace qPCR RT Master Mix. This cDNA was admixed with Real-time PCR Master Mix, primers specific to UCP-1 gene, CIDEA gene or β actin gene and Taqman probe. qRT-PCR was performed using AB7300 Real-time PCR system. The mRNA level of UCP1 gene and CIDEA gene was quantified as a ratio to β-actin gene mRNA level, and calculated with the value of fibroblast cultured in the general medium as 1.

[9] = tested on: human dermal fibroblasts; HDFs; assay: Alizarin Red S staining (staining figure), fibroblast to osteoblast, Example 1; type: cell-based; details: each compound 2 μM in calcification induction medium; day 24; FIG. 1
Method: It was washed 3 times with sterile distilled water. […] The well after staining was washed with sterile distilled water and photographed.
The concentrations of the compounds are as follows: • D4476: 2 μM • ALK5 inhibitor II: 2 μM • SB431542: 2 μM.

[10] = tested on: human dermal fibroblasts; HDFs; assay: Oil Red O staining, fibroblast to brown adipocyte, Example 12; type: cell-based; details: compound 2 μM in addition to T3 1 nM and Rosiglitazone 1 μM, adipocyte induction medium; day 14; FIG. 12
Method: The concentrations of the additives are as follows: • T3: 1 nM • Rosiglitazone: 1 μM • D4476: 2 μM • Pifithrin alpha [p53 inhibitor]: 5 μM • SB431542: 2 μM • ALK5 Inhibitor II: 2 μM.
Then, the cells were washed with sterile distilled water and photographed with a phase contrast microscope at ×100 magnification.

[11] = tested on: Human normal skin-derived fibroblasts (HDFs); assay: Real-time RT-PCR of UCP1, four inhibitors, Example 39; type: cell-based
Method: The addition concentration of the compound was 4 μM, 8 μM, 12 μM or 16 μM. […] Thereafter, in Day 9-Day 14, culturing was performed in a medium free of ALK5 inhibitor II, LY2157299, SB431542, D4476.

Cc1cccc(-c2n[nH]cc2-c2ccc3ncccc3n2)n1 [ALK5 inhibitor II, 2-(3-(6-Methylpyridin-2-yl)-1H-pyrazol-4-yl)-1,5-naphthyridine]
conversion of fibroblast to osteoblast, Osteocalcin and ALP mRNA [1]: converted human skin-derived fibroblast to osteoblast expressing osteocalcin gene and ALP gene | conversion of fibroblast to brown adipocyte, UCP1 protein, exposure 0-8 days ([2]; 4 μM for 0-8 days, thereafter medium free of ALK5 inhibitor II): can be more strongly induced | staining with anti-UCP1 antibody, groups 3-8 ([2]; 4 μM in adipocyte induction medium, days 0-2 to 0-10 or throughout, day 14): many cells were stained with anti-UCP1 antibody | conversion of fibroblast to brown adipocyte, UCP1 protein ([2]; 4 μM in adipocyte induction medium, day 14): converted fibroblast to brown adipocyte is highly expressing UCP1 protein | staining with anti-UCP1 antibody, group 6 ([2]; 4 μM only in days 0-8, day 14): the density of the cells stained with anti-UCP1 antibody was the highest | conversion of fibroblast to cartilage, alcian blue staining [3]: can convert human normal skin-derived fibroblast to cartilage that produces cartilage matrix stained blue | conversion of epidermal keratinocyte to urothelial cell, Uroplakin 1b and Uroplakin 3b mRNA [4]: converted human epidermal keratinocyte to urothelial cell expressing Uroplakin 1b gene and Uroplakin 3b gene | conversion of fibroblast to brown adipocytes, AdipoQ mRNA [5]: converted fibroblast to brown adipocytes expressing mRNA of AdipoQ gene | conversion of fibroblast to brown adipocyte, UCP1 protein ([6]; ALK5 inhibitor II 4 μM): converted fibroblast to brown adipocyte expressing UCP1 protein; also recorded: most strongly induced | staining with anti-UCP1 antibody ([6]; groups 3-6: ALK5 inhibitor II 4 μM): many cells were stained with anti-UCP1 antibody; also recorded: the density of the cells stained with anti-UCP1 antibody was the highest | conversion of gingival-derived fibroblast to osteoblast, Alizarin Red S staining [7]: converted human gingival-derived fibroblast to osteoblast that produces a large amount of calcified bone matrix | conversion of epidermal keratinocyte to brown adipocyte, UCP1 and CIDEA mRNA [8]: converted normal human epidermal keratinocyte to brown adipocyte expressing UCP1 gene and CIDEA gene | conversion of human fibroblast to osteoblast, Alizarin Red S staining (staining figure) [9]: converted to osteoblast having calcified is bone matrix production ability; also recorded: most efficiently converts fibroblast to osteoblast | conversion of fibroblast to brown adipocyte, Oil Red O staining [10]: converted fibroblast to brown adipocyte | conversion of fibroblast to brown adipocyte, UCP1 mRNA ([11]; 4 μM, 8 μM, 12 μM or 16 μM in adipocyte induction medium Day 1 to Day 8, then compound-free to day 14, FIG. 43): converted fibroblast to brown adipocyte strongly expressing UCP1 gene; also recorded: most strongly induced | efficiency in converting fibroblast to brown adipocyte (summary statement) ([11]; description, conditions not given): highly efficient in converting fibroblast to brown adipocyte
